From US20240118281A1, “ANTICANCER COMPOUNDS AND USES THEREOF” (University of Florida Research Foundation, Incorporated, priority 2021, published 2024)

How the values were obtained:
ERp5 = biological target: T1, ERp5 (Homo sapiens, UniProt Q15084); test: Biotin-PyrDTDO/Streptavidin-agarose pulldown from treated cells; type: cell-based; details: FIG. 10A
T1 construct: endogenous in cells
Method: (§1) Cells were treated with Biotin-PyrDTDO with or without the pan-Caspase inhibitor Q-VD-OPH (MedChemExpress, Monmouth Junction, NJ) for 16 h in 10% FBS-DMEM, followed by the addition of 25 mM N-ethylmaleimide (NEM) (Thermo Scientific, Rockford, IL) for 20 min at 37° C. Cells were subsequently scraped directly into the media, washed twice with ice-cold PBS, and pelleted by centrifugation. Cells were extracted in buffer (20 mM HEPES (pH 7.4), 1 mM EDTA, 1mM EGTA, 5% Glycerol, 1 nM Microcystin, 1 mM Na3VO4, and 40 mM Na2H2P2O7) containing 1% Triton X-100. Samples were sonicated, followed by centrifugation for 20 min at 4° C. The supernatant was pre-cleared with Sepharose CL-6B (Amersham Biosciences AP, Uppsala, Sweden) for 2 h at 4° C. Pre-cleared samples were then incubated with Streptavidin (SA)-Agarose (Thermo Scientific, Rockford IL) and mixed on a Nutator for 24 h at 4° C. SA-Agarose was washed three times with extraction buffer containing 0.1% Triton X-100, followed by the addition of 2×-SDS Sample buffer containing 2 mM biotin. Samples were analyzed by immunoblot, silver stain, or probing with Streptavidin-Alkaline Phosphatase.

ERp57 = biological target: T2, ERp57 (Homo sapiens, UniProt P30101); test: as above; type: cell-based; details: FIG. 10A
T2 construct: endogenous in cells
Method: as §1

AGR2 = biological target: T3, AGR2 (Homo sapiens, UniProt O95994); test: as above; type: cell-based; parameters: expressed in transfected cells; details: T47D and BT474 cells, 100 μM, 16 h, FIG. 3C left
T3 sequence (O95994 21-175): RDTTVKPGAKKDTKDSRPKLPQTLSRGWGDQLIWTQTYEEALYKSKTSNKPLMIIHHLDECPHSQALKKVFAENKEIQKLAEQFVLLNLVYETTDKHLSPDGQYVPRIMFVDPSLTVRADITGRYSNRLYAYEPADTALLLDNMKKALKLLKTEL
Method: as §1

ERp44 [1] = biological target: T4, ERp44 (Homo sapiens, UniProt Q9BS26); test: In vitro binding assay with recombinant purified ERp44; details: FIG. 3D
T4 sequence (Q9BS26 30-406): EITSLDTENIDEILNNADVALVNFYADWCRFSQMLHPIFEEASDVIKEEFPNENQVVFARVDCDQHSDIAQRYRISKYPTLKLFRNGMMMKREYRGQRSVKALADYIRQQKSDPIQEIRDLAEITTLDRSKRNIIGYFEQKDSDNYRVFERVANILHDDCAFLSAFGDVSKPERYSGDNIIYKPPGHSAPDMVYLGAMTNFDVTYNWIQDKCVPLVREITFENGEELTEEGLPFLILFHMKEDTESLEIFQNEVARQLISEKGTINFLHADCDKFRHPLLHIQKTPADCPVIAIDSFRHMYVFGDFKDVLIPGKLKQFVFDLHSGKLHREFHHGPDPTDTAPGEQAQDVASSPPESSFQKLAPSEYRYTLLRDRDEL
Method: (§2) Purified His6-AGR2 or His6-AGR2 C81S, as prepared above, or His6-AGR2 (PRO-580) or His6-AGR3 (PRO-242) obtained from ProSpec (New Brunswick NJ) were incubated with or without varying concentrations of the unlabeled DDA competitors, tcyDTDO or dMtcyDTDO, and 30 μM Biotin-GlyPyrDTDO or Biotin-PyrDTDO in buffer (20 mM HEPES (pH 7.4), 1 mM EDTA, 1 mM EGTA, 5% Glycerol, 1 nM Microcystin, 1 mM Na3VO4, and 40 mM Na2H2P2O7) containing 1% Triton-X 100 for 30 min at 37° C. […] Therefore, the two probes were used interchangeably. Reactions were stopped by boiling the samples in 2×-SDS-Sample Buffer containing 100 mM NEM for 10 min. Biotin-DDA labeling of protein was verified by blotting with Streptavidin-Alkaline Phosphatase (Rockland Immunochemicals, Inc., Limerick, PA). ERp44 (PRO-547) and PDIA1 (ENZ-262) were obtained from ProSpec and used in experiments examining the binding of these proteins to Biotin-PyrDTDO.

PDIA1 [2] = biological target: T5, PDIA1 (Homo sapiens, UniProt P07237); test: In vitro binding assay with recombinant purified PDIA1; details: FIG. 3D
Method: as §2

ERp44 [3] = biological target: T4, ERp44; test: Biotin-PyrDTDO/Streptavidin-agarose pulldown from treated cells; type: cell-based; parameters: endogenous in cells; host or cells: MDA-MB-468, BT474, T47D; details: for ERp44 in Streptavidin-Agarose pulldown: 100 μM, 16 h
Method: as §1

PDIA1 [4] = biological target: T5, PDIA1; test: as above; type: cell-based; parameters: endogenous in cells; host or cells: MDA-MB-468, BT474, T47D; details: for PDIA1 in Streptavidin-Agarose pulldown: 100 μM, 16 h
Method: as §1

[5] = test system: proteins in intact cells and purified proteins in vitro; test: Preliminary studies of biotinylated DDA protein labeling
Method: as §2

MDA-MB-468 cells = test: Cell viability (MTT) assay; type: cell-based; details: FIG. 1D
Method: MTT (3-(4,5-dimethylthiazol-2-yl)-2,5-diphenyltetrazolium bromide) (Biomatik, Wilmington, DE) assays were performed by plating 7,500 cells/well in 10% FBS/DMEM in a 96-well plate, followed by incubation at 37° C. for 24 h. Cells were then treated with vehicle or increasing concentrations of tcyDTDO, dMtcyDTDO, or dFtcyDTDO and incubated at 37° C. for 72 h. Cell media was subsequently removed from each well and MTT assays were initiated by incubating cells with 0.5 mg/ml MTT in PBS for 3 h, followed by removal of the MTT solution and addition of 100 µL of DMSO to each well for 30 min. Absorbance of the MTT formazan product was subsequently measured at 570 and 690 (reference) nm in a plate reader.

ERp44 [6] = biological target: T4, ERp44; test: ERp44 disulfide bonding with client proteins, non-reducing immunoblot; type: cell-based; parameters: endogenous in cells; host or cells: MDA-MB-468; details: MDA-MB-468 cells overexpressing wild type ERp44, 7.5 μM, 24 h, FIG. 6B
Method: (§3) To assess protein disulfide bond-mediated oligomerization, cells were treated with DDAs for 24 h in 10% FBS-DMEM. Cells were subsequently scraped directly into the media and pelleted by centrifugation. Cells were extracted directly into boiling 2×-SDS-Sample Buffer containing 100 mM NEM and boiled for 10 min. Samples were sonicated, followed by centrifugation for 20 min at room temperature. Samples were subsequently analyzed by SDS-PAGE and immunoblot.

GRP78 = test: Endoplasmic reticulum stress (ERS) induction, immunoblot; type: cell-based; details: MDA-MB-468 cells, 24 h
Excerpt: (§4) The BT20, BT474, BT549, MCF7, MDA-MB-231, MDA-MB-436, MDA-MB-468, HCC1143, HCC1500, HCC1569, HCC1937, HCC1954, Hs578t, and T47D cells lines were purchased from American Type Culture Collection (ATCC) (Manassas, VA). The HCI-001 cell line was derived from an ER-/PR-/HER2- patient-derived xenograft originally isolated from a patient as described previously (DeRose Y S, et al. Nat Med 2011; 17: 1514-1520). The HCI-001/LVM2 model was derived from the HCI-001 cell line by performing two rounds of selection for liver metastasis, as described previously (Wang M, et al. Cell Death Discovery 2019; 5: 153). Cell lines were grown in Dulbecco's Modified Eagle's Medium (GE Healthcare Life Sciences, Logan, UT) containing 10% fetal bovine serum (10% FBS—DMEM) in a humidified incubator with 5% CO2 at 37° C. Cell lysates were prepared as described previously (Law B K, et al. Mol Cell Biol. 2002; 22: 8184-8198). Immunoblot analysis was performed utilizing the following antibodies purchased from Cell Signaling Technology (Beverly, MA) [Akt, #4691; P-Akt[T308], #13038; ATF4, #11815; CHOP, #2895; Cleaved Caspase 8, #9496; DR4, #42533; DR5, #8074; EGFR, #4267; GRP78, #3177; HER3, #4754; PARP, #9532; PDIA1, #3501; XBP1s, #12782], from Santa Cruz Biotechnology (Santa Cruz, CA) [Actin, sc-47778; AGR2/3, sc-376653; AGR3, sc-390940; ERO1-a, sc-100805; and ERp44, sc-393687], or from Rockland Immunochemicals, Inc. (Limerick, PA), Streptavidin-Alkaline Phosphatase conjugated (SA-AP), S000-05.
as §3

[7] = test system: HER2+ BT474 xenograft tumors; test: BT474 xenograft tumor study, H&E staining of mammary fat pads/tumors; type: in vivo, mice; details: 20 mg/kg intraperitoneal, four consecutive days; vehicle tumors showed no necrosis
Method: Breast cancer liver metastasis was initiated in NOD-SCID-gamma (NSG) mice obtained from Jackson Laboratories (Bar Harbor, ME) by injecting 1×10^6 cancer cells into the #4 mammary fat pads as described previously (Wang M, et al. Cell Death Discovery 2019; 5: 153). Mice bearing HCI-001/LVM2 breast tumors were treated once daily for four consecutive days with 20 mg/kg tcyDTDO by oral gavage and livers were collected. Animals bearing HER2+ BT474 tumors were treated with the vehicle or 20 mg/kg dMtcyDTDO or dFtcyDTDO by intraperitoneal injection for four consecutive days. Tissue samples fixed in 4% paraformaldehyde/PBS and paraffin-embedded were sectioned and stained with hematoxylin and eosin (H&E) by the University of Florida Molecular Pathology Core (https://molecular.pathology.ufl.edu/).

EGFR = test: Disulfide bond-mediated oligomerization, non-reducing immunoblot; type: cell-based; details: MDA-MB-468 cells, 24 h, FIG. 1E right
Excerpt: as §4, §3

DR4 = test: as above; type: cell-based; details: MDA-MB-468 cells, 24 h
Excerpt: as §4, §3

ERp44 [8] = biological target: T6, ERp44 (Homo sapiens, UniProt Q9BS26, S61C); test: ERp44 disulfide bonding with client proteins, non-reducing immunoblot; type: cell-based; details: MDA-MB-468 cells overexpressing ERp44[S61C], 7.5 μM, 24 h, FIG. 6B
T6 construct: endogenous in cells; host or cells: MDA-MB-468
Method: as §3

ERAP1 = ERAP1 retention/secretion in MDA-MB-468 cells, immunoblot; type: cell-based; details: MDA-MB-468 stable cell lines expressing ERp44, 24 h, FIG. 4E
Excerpt: as §4, §3

DR5 = test: Disulfide bond-mediated oligomerization and levels, non-reducing immunoblot; type: cell-based; details: MDA-MB-468 cells, 24 h
Excerpt: as §4, §3

[9] = MDA-MB-468 cells, FIG. 3C right
[10] = T47D and BT474 cells, FIG. 3C left
[11] = compared with tcyDTDO, FIG. 1E left

T5 sequence (P07237 18-508): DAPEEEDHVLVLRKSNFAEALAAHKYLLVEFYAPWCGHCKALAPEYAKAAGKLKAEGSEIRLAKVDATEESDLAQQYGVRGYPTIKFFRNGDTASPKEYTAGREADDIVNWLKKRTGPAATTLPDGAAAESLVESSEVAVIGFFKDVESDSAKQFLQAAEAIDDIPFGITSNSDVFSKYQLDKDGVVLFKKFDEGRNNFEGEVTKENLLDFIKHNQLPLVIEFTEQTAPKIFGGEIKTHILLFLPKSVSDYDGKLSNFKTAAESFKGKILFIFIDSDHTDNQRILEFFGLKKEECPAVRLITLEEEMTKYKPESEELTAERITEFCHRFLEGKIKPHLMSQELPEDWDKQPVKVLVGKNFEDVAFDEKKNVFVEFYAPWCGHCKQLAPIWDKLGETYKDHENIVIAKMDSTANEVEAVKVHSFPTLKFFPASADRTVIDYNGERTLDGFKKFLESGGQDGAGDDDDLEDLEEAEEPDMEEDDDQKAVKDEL
T6 sequence (Q9BS26 30-406 S61C): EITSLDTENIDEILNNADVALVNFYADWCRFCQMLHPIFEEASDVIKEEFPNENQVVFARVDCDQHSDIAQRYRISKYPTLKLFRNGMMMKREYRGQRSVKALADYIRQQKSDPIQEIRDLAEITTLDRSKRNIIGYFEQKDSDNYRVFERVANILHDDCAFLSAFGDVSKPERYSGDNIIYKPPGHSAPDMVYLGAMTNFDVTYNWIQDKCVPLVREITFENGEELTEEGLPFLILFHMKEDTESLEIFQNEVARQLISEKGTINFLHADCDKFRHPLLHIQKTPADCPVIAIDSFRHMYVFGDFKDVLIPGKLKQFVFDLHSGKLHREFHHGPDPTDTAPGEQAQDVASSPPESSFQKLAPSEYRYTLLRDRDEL
T1 sequence (Q15084 20-440): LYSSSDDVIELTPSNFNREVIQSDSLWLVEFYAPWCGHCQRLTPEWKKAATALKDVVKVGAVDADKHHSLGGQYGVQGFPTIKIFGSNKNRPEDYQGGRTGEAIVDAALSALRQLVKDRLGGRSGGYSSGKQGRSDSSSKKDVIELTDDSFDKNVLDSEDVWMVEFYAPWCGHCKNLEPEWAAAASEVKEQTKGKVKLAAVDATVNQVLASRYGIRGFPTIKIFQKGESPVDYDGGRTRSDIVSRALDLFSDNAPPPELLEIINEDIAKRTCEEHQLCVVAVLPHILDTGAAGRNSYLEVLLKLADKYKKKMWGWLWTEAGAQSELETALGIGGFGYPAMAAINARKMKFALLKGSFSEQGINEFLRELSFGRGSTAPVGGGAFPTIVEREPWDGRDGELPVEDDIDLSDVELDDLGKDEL
T2 sequence (P30101 25-505): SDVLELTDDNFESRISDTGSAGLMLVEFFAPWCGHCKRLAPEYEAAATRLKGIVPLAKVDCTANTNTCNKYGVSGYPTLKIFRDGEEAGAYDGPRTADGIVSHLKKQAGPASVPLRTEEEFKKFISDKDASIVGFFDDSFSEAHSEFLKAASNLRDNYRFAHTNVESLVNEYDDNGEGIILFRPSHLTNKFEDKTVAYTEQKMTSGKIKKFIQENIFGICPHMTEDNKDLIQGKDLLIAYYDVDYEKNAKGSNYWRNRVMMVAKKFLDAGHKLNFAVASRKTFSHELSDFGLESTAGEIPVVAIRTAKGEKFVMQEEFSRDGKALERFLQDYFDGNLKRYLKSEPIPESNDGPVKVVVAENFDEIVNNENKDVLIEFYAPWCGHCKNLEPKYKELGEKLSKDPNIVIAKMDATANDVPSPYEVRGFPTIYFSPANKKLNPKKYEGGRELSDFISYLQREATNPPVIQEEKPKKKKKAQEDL

O=C1N[C@H]2[C@H](CS[C@H]2CCCCC(=O)N2C[C@@H]3CS(=O)(=O)SC[C@H]3C2)N1 (mixture of isomers) [Biotin-PyrDTDO, (3aS,4S,6aR)-4-(5-((4aR,7aR) and (4aS,7aS)-2,2-dioxidotetrahydro-1H-[1,2]dithiino[4,5-c]pyrrol-6(4H)-yl)-5-oxopentyptetrahydro-1H-thieno[3,4-d]imidazol-2(3H)-one]
ERp5 in additional pulldown experiments (ERp5): ERp57 and ERp5 were not | ERp57 in additional pulldown experiments (ERp57): ERp57 and ERp5 were not | AGR2 in Streptavidin-Agarose pulldown (AGR2): isolated | Labeling of ERp44 by biotinylated DDA (ERp44 [1]): labeled ERp44 and PDIA1 | Labeling of PDIA1 by biotinylated DDA (PDIA1 [2]): labeled ERp44 and PDIA1 | ERp44 in additional pulldown experiments (ERp44 [3]; FIG. 10A): detected | ERp44 in Streptavidin-Agarose pulldown (ERp44 [3]; [9]): affinity purified ERp44 and PDIA1 | ERp44 in Streptavidin-Agarose pulldown (ERp44 [3]; [10]): isolated | PDIA1 in additional pulldown experiments (PDIA1 [4]; FIG. 10A): detected | PDIA1 in Streptavidin-Agarose pulldown (PDIA1 [4]; [9]): affinity purified ERp44 and PDIA1 | PDIA1 in Streptavidin-Agarose pulldown (PDIA1 [4]; [10]): isolated | Labeling of proteins, comparison of the two biotinylated probes [5]: indistinguishable labeling of proteins in intact cells and purified proteins in vitro

O=S1(=O)CC2CC(F)C(F)CC2CS1 (centres unmarked) [dFtcyDTDO, difluoro-tcyDTDO]
Potency in cell viability assays relative to tcyDTDO (MDA-MB-468 cells): approximately two-fold greater potency than tcyDTDO | Disulfide bonding of overexpressed ERp44 to client proteins (ERp44 [6]): partially blocked | Concentration at which induction of ERS (GRP78 elevation) was detected (GRP78; FIG. 1E right): 625 nM | ERS at the same concentration (GRP78; [11]): greater ERS | Tumors in mammary fat pads, H&E histology [7]: tumors were not observed | Concentration at which disulfide-mediated oligomerization of EGFR was detected (EGFR): 625 nM | Concentration at which disulfide-mediated oligomerization of DR4 was detected (DR4; FIG. 1E right): 625 nM | DR4/5 oligomerization at the same concentration (DR4) (DR4; [11]): more DR4/5 oligomerization | Disruption of S61C ERp44 mutant binding to its clients, versus wild type (ERp44 [8]): less sensitive to disruption of binding to its clients | ERAP1-ERp44 disulfide-bonded dimer (ERAP1): reduced | DR5 upregulation in cells overexpressing C58S or S61C ERp44 mutants (DR5; 7.5 μM, FIG. 6B): potentiated DR5 upregulation | Concentration at which oligomerization of DR5 was observed (DR5; FIG. 1E right): 1.25 µM | DR4/5 oligomerization at the same concentration (DR5) (DR5; [11]): more DR4/5 oligomerization | DR5 levels at the same concentration (DR5; [11]): higher DR5 levels
